The source of these data is patent US9708336B2, “Metallo-beta-lactamase inhibitors” (priority 2014, dated 2017).

One assay has as its target IMP-1 (Serratia marcescens, UniProt P52699). Description: biochemical. Format: biochemical. Conditions: IMP-1 enzyme, CCF2-FA substrate; read-out: IMP-1 IC50.
A further assay deals with NDM-1 (Klebsiella pneumoniae, UniProt C7C422). The assay is described as follows: biochemical. In kind it is biochemical. Conditions: NDM-1 enzyme, CCF2-FA substrate; read-out: NDM-1 IC50.
The target of another assay is VIM-1 (Pseudomonas aeruginosa (strain ATCC 15692 / DSM 22644 / CIP 104116 / JCM 14847 / LMG 12228 / 1C / PRS 101 / PAO1), UniProt A0A0F7KYQ8). Description: Enzyme activity: determination of IC50, fluorescence assay with CCF2-FA substrate (VIM-1). Format: biochemical. The following applies: CCF2-FA substrate.
For assay [1], the system named is Escherichia coli expressing NDM-1 (CLB30016). The assay is described as follows: Antibiotic potentiation activity: synergistic concentration (MITC95) with imipenem, OD600 growth. Format: cell-based. Conditions: (CLB30016, NDM-1), 95% growth inhibition. In a few lines: (§1)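 Imipenem (4 μg/ml final; 1 μg/ml as an option) was combined with compound against isolates diluted 1:100 from saline suspensions into 1.1× CAMHB. Growth was assessed by absorbance at 22–24 h, 35 °C.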

Assay [2] concerns Klebsiella pneumoniae expressing VIM-1 (IHMA599644). Described as above. Format: cell-based. The following applies: Klebsiella pneumoniae IHMA599644 (VIM-1), 95% growth inhibition. An outline of the steps:
as §1

Assay [3] deals with Serratia marcescens expressing IMP-1 (CL5741). The description is as above. In kind it is cell-based. The following applies: Serratia marcescens CL5741 (IMP-1), 95% growth inhibition. An outline of the steps:
as §1

Setting [4] is: VIM-1 enzyme, read-out: VIM-1 IC50.

Like-named read-outs stand apart in the source and are kept apart here.

Chain of IMP-1 (P52699 whole entry, looked up): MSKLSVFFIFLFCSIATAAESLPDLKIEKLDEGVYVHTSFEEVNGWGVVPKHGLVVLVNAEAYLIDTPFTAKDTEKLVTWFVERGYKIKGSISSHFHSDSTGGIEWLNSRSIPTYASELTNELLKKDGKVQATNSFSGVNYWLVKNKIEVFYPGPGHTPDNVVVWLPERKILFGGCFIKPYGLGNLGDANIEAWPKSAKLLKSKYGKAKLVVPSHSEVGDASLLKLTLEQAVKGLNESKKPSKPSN
Chain of NDM-1 (C7C422 whole entry, looked up, species assumed): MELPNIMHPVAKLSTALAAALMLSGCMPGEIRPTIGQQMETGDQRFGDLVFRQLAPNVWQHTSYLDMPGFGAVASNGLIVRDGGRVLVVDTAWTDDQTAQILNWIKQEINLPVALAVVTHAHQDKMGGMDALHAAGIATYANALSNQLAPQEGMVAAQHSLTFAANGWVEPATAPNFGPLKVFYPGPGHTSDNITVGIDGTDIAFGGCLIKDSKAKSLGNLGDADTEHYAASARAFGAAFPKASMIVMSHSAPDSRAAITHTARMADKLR

With `NS(=O)(=O)c1c(C(F)(F)F)ccc([C@H]2CC[C@H](NC3CC[C@@H]4CNCC[C@H]4C3)CC2)c1-c1nnn[nH]1` (stereo partly drawn) [Example 684, 3-{4-[(4aS,8aS)-decahydroisoquinolin-6-ylamino]cyclohexyl}-2-(1H-tetrazol-5-yl)-6-(trifluoromethyl)benzene sulfonamide], the IC50 at IMP-1 was 75.7 nM; on NDM-1 it was 38.6 nM; at VIM-1 (setting [4]) it was 10.8 nM. In addition, the “Escherichia coli MITC95” value in assay [1] turned out to be 3.125 µM. Moreover, the “Klebsiella pneumoniae MITC95” value in assay [2] stood at 12.5 µM. For the same compound, the “Serratia marcescens MITC95” value in assay [3] turned out to be 6.25 µM.
For the compound `NS(=O)(=O)c1c(C(F)(F)F)ccc([C@H]2CC[C@H](NC3CC4(CCNCC4)C3)CC2)c1-c1nnn[nH]1` [Example 685, 3-[4-(7-azaspiro[3.5]non-2-ylamino)cyclohexyl]-2-(1H-tetrazol-5-yl)-6-(trifluoromethyl)benzene sulfonamide], the concentration for half-maximal inhibition (IC50) is 75.8 nM at IMP-1, 30 nM on NDM-1 and 4.88 nM on VIM-1 (setting [4]). In assay [1], the “Escherichia coli MITC95” value was 1.563 µM. Further, the “Klebsiella pneumoniae MITC95” value in assay [2] was found to be 25 µM. Also, the “Serratia marcescens MITC95” value in assay [3] came out at 6.25 µM.
For `NS(=O)(=O)c1c(C(F)(F)F)ccc([C@H]2CC[C@H](NC3CC4CNCCN4C3)CC2)c1-c1nnn[nH]1` (stereo partly drawn) [Example 686, 3-[4-(octahydropyrrolo[1,2-a]pyrazin-7-ylamino)cyclohexyl]-2-(1H-tetrazol-5-yl)-6-(trifluoromethyl)benzene sulfonamide], the IC50 worked out at 31.7 nM on IMP-1; 9.53 nM at NDM-1; 15.7 nM at VIM-1 (VIM-1 IC50, VIM-1 enzyme). Further, the “Escherichia coli MITC95” value in assay [1] was found to be 1.563 µM. Also, the “Klebsiella pneumoniae MITC95” value in assay [2] is 12.5 µM. For the same compound, the “Serratia marcescens MITC95” value in assay [3] came to 6.25 µM.
With `NC1CCCC(N[C@H]2CC[C@H](c3ccc(C(F)(F)F)c(S(N)(=O)=O)c3-c3nnn[nH]3)CC2)C1` (stereo partly drawn) [Example 687, 3-{4-[(3-aminocyclohexyl)amino]cyclohexyl}-2-(1H-tetrazol-5-yl)-6-(trifluoromethyl)benzene sulfonamide], the IC50 was 94.3 nM at IMP-1; 25.2 nM at NDM-1; 27.8 nM at VIM-1 (VIM-1 IC50, VIM-1 enzyme). Also, the “Escherichia coli MITC95” value in assay [1] was found to be 3.125 µM. Also, the “Klebsiella pneumoniae MITC95” value in assay [2] worked out at 25 µM. In addition, in assay [3], the “Serratia marcescens MITC95” value is 6.25 µM.
Consider `CC(CCCN)N[C@H]1CC[C@H](c2ccc(C(F)(F)F)c(S(N)(=O)=O)c2-c2nnn[nH]2)CC1` (stereo partly drawn) [Example 688, 3-{4-[(4-amino-1-methylbutyl)amino]cyclo-hexyl)-2-(1H-tetrazol-5-yl)-6-(trifluoromethyl)benzene sulfonamide], for which the IC50 on IMP-1 worked out at 158 nM; on NDM-1 it was 44.1 nM; on VIM-1 (setting [4]) it was 13.4 nM. For the same compound, the “Escherichia coli MITC95” value in assay [1] was 1.563 µM. For the same compound, the “Klebsiella pneumoniae MITC95” value in assay [2] was 12.5 µM. Further, in assay [3], the “Serratia marcescens MITC95” value came out at 6.25 µM.
Turning to `NS(=O)(=O)c1c(C(F)(F)F)ccc([C@H]2CC[C@H](NC3CCC4(CCNCC4)CC3)CC2)c1-c1nnn[nH]1` [Example 689, 3-[4-(3-azaspiro[5.5]undec-9-ylamino)cyclohexyl]-2-(1H-tetrazol-5-yl)-6-(trifluoromethyl)benzene sulfonamide], the IC50 on IMP-1 was 52.1 nM; on NDM-1 it was 26.8 nM; on VIM-1 (setting [4]), 6.43 nM. Further, the “Escherichia coli MITC95” value in assay [1] is 6.25 µM. The “Klebsiella pneumoniae MITC95” value in assay [2] was determined as 12.5 µM. The “Serratia marcescens MITC95” value in assay [3] worked out at 6.25 µM.
As to `NC1CCC(N[C@H]2CC[C@H](c3ccc(C(F)(F)F)c(S(N)(=O)=O)c3-c3nnn[nH]3)CC2)CC1` (stereo partly drawn) [Example 690, 3-{4-[(4-aminocyclohexyl)amino]cyclohexyl}-2-(1H-tetrazol-5-yl)-6-(trifluoromethyl)benzene sulfonamide], the IC50 on IMP-1 is 75.9 nM; on NDM-1, 12.6 nM; on VIM-1 (VIM-1 IC50, VIM-1 enzyme) it was 5.26 nM. For the same compound, the “Escherichia coli MITC95” value in assay [1] came out at 1.563 µM. For the same compound, the “Klebsiella pneumoniae MITC95” value in assay [2] was 25 µM. For the same compound, in assay [3], the “Serratia marcescens MITC95” value is 3.125 µM.
For the compound `NC1CCC(N[C@H]2CC[C@H](c3ccc(C(F)(F)F)c(S(N)(=O)=O)c3-c3nnn[nH]3)CC2)C1` (stereo partly drawn) [Example 691, 3-{4-[(3-aminocyclopentyl)amino]cyclohexyl}-2-(1H-tetrazol-5-yl)-6-(trifluoromethyl)benzene sulfonamide], the IC50 at IMP-1 was 51.8 nM; at NDM-1, 10.6 nM; against VIM-1 (VIM-1 IC50, VIM-1 enzyme), 6.13 nM. In assay [1], the “Escherichia coli MITC95” value is 0.7813 µM. The “Klebsiella pneumoniae MITC95” value in assay [2] came to 3.125 µM. In assay [3], the “Serratia marcescens MITC95” value turned out to be 3.125 µM.
Consider `NCCC1CCC(N[C@H]2CC[C@H](c3ccc(C(F)(F)F)c(S(N)(=O)=O)c3-c3nnn[nH]3)CC2)CC1` (stereo partly drawn) [Example 693, 3-(4-{[4-(2-aminoethyl)cyclohexyl]a-mino}cyclohexyl)-2-(1H-tetrazol-5-yl)-6-(trifluoromethyl)benzene sulfonamide], for which the IC50 on IMP-1 worked out at 97.8 nM; on NDM-1, 36.9 nM; at VIM-1 (setting [4]) it was 11.6 nM. For the same compound, the “Escherichia coli MITC95” value in assay [1] came to 3.125 µM. For the same compound, the “Klebsiella pneumoniae MITC95” value in assay [2] is 12.5 µM. Moreover, in assay [3], the “Serratia marcescens MITC95” value was found to be 6.25 µM.
For `NC1CC(N[C@H]2CC[C@H](c3ccc(C(F)(F)F)c(S(N)(=O)=O)c3-c3nnn[nH]3)CC2)C1` (stereo partly drawn) [Example 694, 3-{4-[(3-aminocyclobutyl)amino]cyclohexyl}-2-(1H-tetrazol-5-yl)-6-(trifluoromethyl)benzene sulfonamide], the IC50 was determined as 18.6 nM at IMP-1; 4.84 nM on NDM-1; 2.46 nM on VIM-1 (VIM-1 IC50, VIM-1 enzyme). Besides, the “Escherichia coli MITC95” value in assay [1] worked out at 0.3906 µM. The “Klebsiella pneumoniae MITC95” value in assay [2] turned out to be 1.563 µM. The “Serratia marcescens MITC95” value in assay [3] was found to be 1.563 µM.
Take `NS(=O)(=O)c1c(C(F)(F)F)ccc([C@H]2CC[C@H](NC3CCCNCC3)CC2)c1-c1nnn[nH]1` (stereo partly drawn) [Example 695, 3-[4-(azepan-4-ylamino)cyclohexyl]-2-(1H-tetrazol-5-yl)-6-(trifluoromethyl)benzene sulfonamide]: the IC50 was 42.3 nM at IMP-1, 13.6 nM at NDM-1 and 13.2 nM on VIM-1 (setting [4]). The “Escherichia coli MITC95” value in assay [1] is 0.7813 µM. Moreover, in assay [2], the “Klebsiella pneumoniae MITC95” value came to 6.25 µM. Moreover, in assay [3], the “Serratia marcescens MITC95” value was determined as 3.125 µM.
Take `NS(=O)(=O)c1c(C(F)(F)F)ccc([C@H]2CC[C@H](NC3CCNC3)CC2)c1-c1nnn[nH]1` (stereo partly drawn) [Example 696, 3-[4-(pyrrolidin-3-ylamino)cyclohexyl]-2-(1H-tetrazol-5-yl)-6-(trifluoromethyl)benzene sulfonamide]: the half-inhibitory concentration (IC50) on IMP-1 came out at 5.26 nM; at NDM-1, 1.09 nM; on VIM-1 (setting [4]), 2.38 nM. In addition, the “Escherichia coli MITC95” value in assay [1] was determined as 0.3906 µM. In assay [2], the “Klebsiella pneumoniae MITC95” value was determined as 3.125 µM. The “Serratia marcescens MITC95” value in assay [3] came to 1.563 µM.
Regarding `NS(=O)(=O)c1c(C(F)(F)F)ccc([C@H]2CC[C@H](NC3CCCNC3)CC2)c1-c1nnn[nH]1` (stereo partly drawn) [Example 697, 3-[4-(piperidin-3-ylamino)cyclohexyl]-2-(1H-tetrazol-5-yl)-6-(trifluoromethyl)benzene sulfonamide], the IC50 was found to be 6.42 nM on IMP-1; 1.61 nM on NDM-1; 6.33 nM at VIM-1 (VIM-1 IC50, VIM-1 enzyme). Also, the “Escherichia coli MITC95” value in assay [1] was determined as 0.7813 µM. Moreover, the “Klebsiella pneumoniae MITC95” value in assay [2] is 6.25 µM. In addition, in assay [3], the “Serratia marcescens MITC95” value was found to be 3.125 µM.
Consider `NS(=O)(=O)c1c(C(F)(F)F)ccc([C@H]2CC[C@H](NC3CCNCC3)CC2)c1-c1nnn[nH]1` [Example 698, 3-[4-(piperidin-4-ylamino)cyclohexyl]-2-(1H-tetrazol-5-yl)-6-(trifluoromethyl)benzene sulfonamide], for which the values for the IC50 on IMP-1, at NDM-1 and on VIM-1 (setting [4]) were 29.6 nM, 10 nM and 6.52 nM, respectively. For the same compound, the “Escherichia coli MITC95” value in assay [1] stood at 0.7813 µM. For the same compound, in assay [2], the “Klebsiella pneumoniae MITC95” value is 3.125 µM. For the same compound, the “Serratia marcescens MITC95” value in assay [3] came out at 3.125 µM.
Consider `NCC1CCC(N[C@H]2CC[C@H](c3ccc(C(F)(F)F)c(S(N)(=O)=O)c3-c3nnn[nH]3)CC2)CC1` (stereo partly drawn) [Example 699, 3-(4-{[4-(aminomethyl)cyclohexyl]amino}cyclohexyl)-2-(1H-tetrazol-5-yl)-6-(trifluoromethyl)benzene sulfonamide], for which the 50% inhibitory concentration (IC50) at IMP-1 was found to be 58.8 nM; on NDM-1, 18 nM; on VIM-1 (setting [4]), 4.72 nM. In assay [1], the “Escherichia coli MITC95” value turned out to be 3.125 µM. In addition, in assay [2], the “Klebsiella pneumoniae MITC95” value was found to be 6.25 µM. Further, the “Serratia marcescens MITC95” value in assay [3] is 6.25 µM.
Turning to `NCCN[C@H]1CC[C@H](c2ccc(C(F)(F)F)c(S(N)(=O)=O)c2-c2nnn[nH]2)CC1` [Example 700, 3-{4-[(2-aminoethyl)amino]cyclo-hexyl}-2-(1H-tetrazol-5-yl)-6-(trifluoromethyl)benzene sulfonamide], the IC50 on IMP-1 amounted to 16.7 nM; on NDM-1, 3.94 nM; against VIM-1 (VIM-1 IC50, VIM-1 enzyme), 0.958 nM. In assay [1], the “Escherichia coli MITC95” value was determined as 0.3906 µM. In addition, the “Klebsiella pneumoniae MITC95” value in assay [2] was determined as 1.563 µM. The “Serratia marcescens MITC95” value in assay [3] amounted to 3.125 µM.

What is called IC50 is the concentration that inhibits the measured activity by half.
